This is an account of results in patent publication US12649749B2, “Preparation and application of tricyclic pyrimidinone compound and its composition” (NEUSCO BIOTECH LIMITED, priority 2020, dated 2026).

The target in assay [1] is T1, Recombinant human Lp-PLA2 enzyme (Homo sapiens, UniProt Q13093).
T1 sequence (Q13093 22-441): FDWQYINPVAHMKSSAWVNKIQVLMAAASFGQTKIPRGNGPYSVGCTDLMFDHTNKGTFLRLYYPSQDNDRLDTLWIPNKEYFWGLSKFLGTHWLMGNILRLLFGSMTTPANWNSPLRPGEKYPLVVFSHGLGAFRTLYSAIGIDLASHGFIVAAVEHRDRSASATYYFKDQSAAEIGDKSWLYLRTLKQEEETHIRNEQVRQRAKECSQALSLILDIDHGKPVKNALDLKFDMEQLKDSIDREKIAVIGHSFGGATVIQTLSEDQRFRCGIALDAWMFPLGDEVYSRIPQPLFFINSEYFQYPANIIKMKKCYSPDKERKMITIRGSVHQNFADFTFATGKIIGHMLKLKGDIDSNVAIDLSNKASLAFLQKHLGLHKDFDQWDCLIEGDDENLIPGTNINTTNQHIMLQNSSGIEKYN
Kind of assay: Recombinant human Lp-PLA2 (rhLp-PLA2) assay (PED6 assay). The assay is classed as biochemical. The following applies: PED6 substrate; recombinant human Lp-PLA2 at 4 nM or 110 pM; 30 min pre-incubation; fluorescence ex 480/em 540; read-out: rhLp-PLA2 (pIC50) (converted). From the text: (1) Recombinant Human Lp-PLA2 (rhLp-PLA2) Assay (also Known as PED6 Assay)
PED6 is a fluorescently labeled phospholipid that can be purchased directly from Invitogene or Molecular Probes. There is a fluorescence-quenching p-nitrophenyl group on the Sn3 position, and a Bodipy fluorescein (FL) group on the sn2 position. Once it is cleaved by the Lp-PLA2 enzyme, the FL group is released, resulting in enhanced fluorescence.
Assay method: The compound to be tested (as shown in Table 1) was mixed with DMSO solution at a volume ratio of 1:3, diluted to prepare a source plate of a 384-well microplate. Then 0.01 μl of the compound was transferred via an ECHO liquid dispenser from the source plate to a 384-well Greiner 784076 plate, and 5 microliters of a buffer composed of 50 mM HEPES, pH 7.4, 150 mM NaCl, 1 mM CHAPS (the buffer solution contains Recombinant human Lp-PLA2 enzyme at a concentration of 4 nM or 110 pM) was added to each well on the plate. The plate was centrifuged at 500 rpm for 10 seconds. After 30 minutes of pre-incubation, 5 microliters of the above buffer solution was added to a 384-well Greiner784076 plate, and the plate was centrifuged at 500 rpm for 10 seconds.

Assay [2] addresses T2, Lp-PLA2 enzyme in human plasma (Homo sapiens, UniProt Q13093).
T2 construct: from tissue; host or cells: pooled (mixed) human plasma
T2 sequence (Q13093 22-441): T1 sequence (Q13093 22-441)
Kind of assay: Human plasma Lp-PLA2 assay (Thio-PAF assay). The assay is classed as biochemical. Conditions: mixed human plasma; 2-thio-PAF substrate with CPM; 30 min pre-incubation; fluorescence ex 380/em 485; read-out: Thio-PAF (pIC50) (converted). As for the experimental part:
(2) Human Plasma Lp-PLA2 Assay (Also Known as Thio-PAF Assay) The human plasma assay was conducted using the sulphatide analog of PAF (phosphatidylcholine), which is hydrolyzed to produce phospholipids containing free sulfhydryl groups, subjected to Michael addition with CPM to generate fluorescence-enhancing maleimide. Continuous quantitative analysis of thiol could be conducted by detecting the fluorescence intensity. This assay can be used to detect the inhibitory activity of the Lp-PLA2 inhibitor on the Lp-PLA2 enzyme in human plasma. Assay Method: The compound to be tested (as shown in Table 2) was mixed with a DMSO solution in a volume ratio of (1:3), and diluted to prepare a source plate of a 384-well microplate. Then 0.01 μl of the compound was transferred via an ECHO liquid dispenser from the source plate to a 384-well Greiner 784076 low-volume plate, and 8 μl of pre-aliquoted and frozen mixed human plasma was added. The plate was centrifuged at 500 rpm for 10 seconds. After a 30 min pre-incubation, 2 μl of a substrate solution, and containing 2.5 mM 2-thio-PAF (a solution in ethanol), 32 μM CPM (a solution in DMSO) and a buffer of 3.2 mM N-ethylmaleimide (NEM) (a buffer solution consisting of 50 mM HEPES, pH 7.4, 150 mM NaCl, 1 mM CHAPS) was added by a BRAVO liquid handling station to a 384-well Greiner 784076 low-volume plate. After 2 min, the reaction was quenched with 5 μl of 5% trifluoroacetic acid. After the plate was incubated at room temperature for 40 min in a dark place, the fluorescence intensity was read at ex 380/em 485 with an Envision microplate reader, and the XL fitting model in Excel was used to perform the curve analysis and QC analysis to calculate pIC50.

Regarding `Cc1ncc(Oc2c(F)cc(COc3cc4n(c(=O)n3)CC[C@@H]3COCCN43)cc2F)cn1` [Compound 8], the IC50 in assay [1] was 0.316 nM; in assay [2], 15.8 nM.
In the case of `O=c1nc(OCc2cccc(F)c2F)cc2n1CC[C@H]1COCCN21` [Compound 14], the IC50 is 31.6 nM in assay [1] and 316 nM in assay [2].
For `O=c1nc(OCc2cc(F)c(Oc3ccc(C(F)(F)F)c(Cl)c3)c(F)c2)cc2n1CC[C@@H]1COCCN21` [Compound 12], in that order: 0.0501 nM and 6.31 nM.
As for `O=c1nc(OCc2cc(F)c(Oc3ccc(C(F)(F)F)nc3)c(F)c2)cc2n1CC[C@@H]1COCCN21` [Compound 6], the IC50 was 0.1 nM in assay [1] and 7.94 nM in assay [2].
For `Cc1ccc(Oc2c(F)cc(COc3cc4n(c(=O)n3)CC[C@@H]3COCCN43)cc2F)cn1` [Compound 7], the results for the IC50 in assay [1] and in assay [2] were 0.0631 nM and 7.94 nM, respectively.
`Cc1cc(Oc2c(F)cc(COc3cc4n(c(=O)n3)CC[C@H]3COCCN43)cc2F)ccn1` [Compound 16]: the IC50 in assay [1] is 0.0794 nM; in assay [2], 7.94 nM.
On to `O=c1nc(OCc2cc(F)c(F)c(F)c2)cc2n1CC[C@H]1COCCN21` [Compound 13], for which the IC50 in assay [1] is 6.31 nM; in assay [2], 79.4 nM.
For `O=c1nc(OCc2cc(F)c(Oc3cccc(C(F)(F)F)c3)c(F)c2)cc2n1CC[C@@H]1COCCN21` [Compound 9], in that order: 0.0631 nM and 6.31 nM.
Turning to `O=c1nc(OCc2cccc(F)c2F)cc2n1CC[C@@H]1COCCN21` [Compound 2], the IC50 is 25.1 nM in assay [1] and 251 nM in assay [2].
For `O=c1nc(OCc2cc(F)c(Oc3ccc(C(F)(F)F)cc3)c(F)c2)cc2n1CC[C@@H]1COCCN21` [Compound 11], in that order: 0.0794 nM and 7.94 nM.
With `O=c1nc(OCc2cc(F)c(Oc3ccc(C(F)(F)F)cc3)c(F)c2)cc2n1CC[C@H]1COCCN21` [Compound 20], the figures for the IC50 in assay [1] and in assay [2] were 0.1 nM and 12.6 nM, respectively.
For `O=c1nc(OCc2cc(F)c(F)c(F)c2)cc2n1CC[C@@H]1COCCN21` [Compound 1], in that order: 3.98 nM and 63.1 nM.
Consider `O=c1nc(OCc2cc(F)c(Oc3ccnc(C(F)(F)F)c3)c(F)c2)cc2n1CC[C@@H]1COCCN21` [Compound 4], for which the IC50 was 0.0794 nM in assay [1] and 6.31 nM in assay [2].
For `Cc1cc(Oc2c(F)cc(COc3cc4n(c(=O)n3)CC[C@@H]3COCCN43)cc2F)ccn1` [Compound 5], the IC50 in assay [1] is 0.0631 nM; in assay [2], 3.16 nM.
As to `O=c1nc(OCc2cc(F)c(Oc3cccc(C(F)(F)F)c3)c(F)c2)cc2n1CC[C@H]1COCCN21` [Compound 19], the results for the IC50 in assay [1] and in assay [2] were 0.0794 nM and 7.94 nM, respectively.
With `O=c1nc(OCc2cc(F)c(F)cc2F)cc2n1CC[C@@H]1COCCN21` [Compound 3], the results for the IC50 in assay [1] and in assay [2] were 31.6 nM and 316 nM, respectively.
With `Cc1ccc(Oc2c(F)cc(COc3cc4n(c(=O)n3)CC[C@H]3COCCN43)cc2F)cn1` [Compound 18], the IC50 in assay [1] was 0.1 nM; in assay [2] it was 10 nM.
For `O=c1nc(OCc2cc(F)c(Oc3ccnc(C(F)(F)F)c3)c(F)c2)cc2n1CC[C@H]1COCCN21` [Compound 15], in that order: 0.126 nM and 12.6 nM.
On to `O=c1nc(OCc2cc(F)c(Oc3cccc(OC(F)(F)F)c3)c(F)c2)cc2n1CC[C@@H]1COCCN21` [Compound 10], for which the IC50 in assay [1] is 0.0794 nM; in assay [2], 10 nM.
Turning to `O=c1nc(OCc2cc(F)c(Oc3ccc(C(F)(F)F)nc3)c(F)c2)cc2n1CC[C@H]1COCCN21` [Compound 17], the IC50 is 0.126 nM in assay [1] and 12.6 nM in assay [2].
